Source: patent US8133893B2, “Trazodone and trazodone hydrochloride in purified form” (Aziende Chimiche Riunite Angelini Francesco A.C.R.A.F. …, priority 2007, dated 2012)
“And” between values parts separate entries of the source, which are not always exact repeats. Identical values can stand only once.

Key:
[1] = as reported in TOXNET, National Library of Medicine; cited from earlier work
[2] = system: Salmonella typhimurium strain TA1535; test: bacterial reverse mutation test (standard plate incorporation assay); format: cell-based
Experimental: The genotoxic activity of N-(3-chlorophenyl)-N′-(3-chloropropyl)-piperazine has been assessed on histidine-dependent auxotrophic mutants of Salmonella typhimurium strains TA1535, TA1537, TA 98 and TA100, and on tryptophan-dependent mutants of Escherichia coli strain WP2 uvrA (pKM101), exposed to a solution of N-(3-chlorophenyl)-N′-(3-chloropropyl)-piperazine in dimethylsulphoxide (DMSO) and using DMSO as negative control. Two independent mutation tests were performed, both in the presence and absence of a liver microsomal fraction (S9 mix) of rat treated with phenobarbital and 5,6-benzoflavone. Tests were standard plate incorporation assays and performed according to the current regulatory guidelines. A substantial increase in reversion to prototrophy was obtained on strain TA1535 in the presence of S9 mix. In the two assays the increase was concentration related and reached, following exposure to 1500 μg per plate of N-(3-chlorophenyl)-N′-(3-chloropropyl)-piperazine, 6.4 and 5.1 times the control value.

2,2-Dichloroethylamine
genotoxicity [1]: known genotoxic substances

ClCCCN1CCN(c2cccc(Cl)c2)CC1 [N-(3-chlorophenyl)-N′-(3-chloropropyl)-piperazine]
genotoxic activity (conclusion) ([2]; bacterial system, following metabolic activation (S9 mix)): exhibited genotoxic activity
increase in reversion to prototrophy ([2]; strain TA1535, in the presence of S9 mix (rat liver microsomal fraction), 1500 μg per plate, two independent assays, DMSO negative control): 6.4 times the control value and 5.1 times the control value
